These results are taken from patent US12331026B2 (NiKang Therapeutics, Inc., priority 2022, dated 2025).

Each structure is given as a SMILES string.

The experiment concerns the target T1, CDK2 (Homo sapiens, UniProt P24941).
T1 construct: endogenous in cells; host or cells: OVCAR3 cells
Description: Phospho-RB measurement in OVCAR3 cells (HTRF phospho-RB S807/811). The conditions noted are these: phosphorylation of RB protein at S807/811, HTRF, 24 h compound treatment, 0.3 to 10,000 nM, read-out: pRb (uM). It counts as cell-based. In outline:
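IC50 values come from four-parameter logistic fits of the DMSO-normalised 665/620 nm TR-FRET ratio for phospho-RB (S807/811). Antibody detection ran 4 h at room temperature.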
(In general: In TR-FRET formats the signal depends on donor and acceptor labels being close together.)
Regarding `CC1(C#N)CC2CCC(C1)N2c1nc(-c2cccc(NS(=O)(=O)c3c(F)cccc3F)c2F)c(-c2ccnc(NC3CC4(C3)CS(=O)(=O)C4)n2)s1` (centres unmarked) [Example 33, N-(3-(2-(3-cyano-3-methyl-8-azabicyclo[3.2.1]octan-8-yl)-5-(2-((2,2-dioxido-2-thiaspiro[3.3]heptan-6-yl)amino)pyrimidin-4-yl)thiazol-4-yl)-2-fluorophenyl)-2,6-difluorobenzenesulfonamide], the IC50 was 0.1 µM.

For `CS(=O)(=O)[C@H]1CC[C@H](Nc2nccc(-c3sc(C4(C(F)(F)F)CC4)nc3-c3cccc(NS(=O)(=O)c4c(Cl)cccc4C(F)(F)F)c3F)n2)CC1` [Example 133, 2-chloro-N-(2-fluoro-3-(5-(2-(((1r,4r)-4-(methylsulfonyl)-cyclohexyl)amino)pyrimidin-4-yl)-2-(1-(trifluoromethyl)-cyclopropyl)thiazol-4-yl)phenyl)-6-(trifluoromethyl)benzene-sulfonamide], the IC50 amounted to 0.12 µM.

`O=S1(=O)CC2(CC(Nc3nccc(-c4sc(N5C6CCC5CNC6)nc4-c4cccc(NS(=O)(=O)c5c(F)cccc5F)c4F)n3)C2)C1` [Example 141, N-(3-(2-(3,8-diazabicyclo[3.2.1]octan-8-yl)-5-(2-((2,2-dioxido-2-thiaspiro[3.3]heptan-6-yl)amino)pyrimidin-4-yl)thiazol-4-yl)-2-fluorophenyl)-2,6-difluorobenzenesulfonamide]: the IC50 came out at 6.7 µM.

Regarding `CS(=O)(=O)[C@H]1CC[C@H](Nc2nccc(-c3sc(C4(C(F)(F)F)CC4)nc3-c3cccc(NS(=O)(=O)c4c(F)cccc4C(F)(F)F)c3F)n2)CC1` [Example 104, 2-fluoro-N-(2-fluoro-3-(5-(2-(((1r,4r)-4-(methylsulfonyl)-cyclohexyl)amino)pyrimidin-4-yl)-2-(1-(trifluoromethyl)-cyclopropyl)thiazol-4-yl)phenyl)-6-(trifluoromethyl)benzenesulfonamide], the IC50 was 0.08 µM.

Take `O=S1(=O)CC2(CC(Nc3nccc(-c4sc(N5CC6CCC(C5)N6c5ccccn5)nc4-c4cccc(NS(=O)(=O)c5c(F)cccc5F)c4F)n3)C2)C1` [Example 37, N-(3-(5-(2-((2,2-dioxido-2-thiaspiro[3.3]heptan-6-yl)amino)-pyrimidin-4-yl)-2-(8-(pyridin-2-yl)-3,8-diazabicyclo[3.2.1]octan-3-yl)thiazol-4-yl)-2-fluorophenyl)-2,6-difluorobenzenesulfonamide]: the IC50 worked out at 0.42 µM.

On to `O=S1(=O)C[C@@H]2[C@H](C1)[C@H]2Nc1nccc(-c2sc(C34CCC(CC3)CC4)nc2-c2cccc(NS(=O)(=O)c3c(F)cccc3F)c2F)n1` [Example 116, N-(3-(2-(bicyclo[2.2.2]octan-1-yl)-5-(2-(((1R,5S,6r)-3,3-dioxido-3-thiabicyclo[3.1.0]hexan-6-yl)amino)pyrimidin-4-yl)thiazol-4-yl)-2-fluorophenyl)-2,6-difluorobenzenesulfonamide], for which the IC50 amounted to 0.09 µM.

Turning to `O=S1(=O)CC2(CC(Nc3nccc(-c4sc(N5C6CCC5CN(C5CCC5)C6)nc4-c4cccc(NS(=O)(=O)c5c(F)cccc5F)c4F)n3)C2)C1` [Example 52, N-(3-(2-(3-cyclobutyl-3,8-diazabicyclo[3.2.1]octan-8-yl)-5-(2-((2,2-dioxido-2-thiaspiro[3.3]heptan-6-yl)amino)pyrimidin-4-yl)thiazol-4-yl)-2-fluorophenyl)-2,6-difluorobenzenesulfonamide], the IC50 came to 0.08 µM.

`O=S1(=O)CC2(CC(Nc3nccc(-c4sc(N5C6CCC5CN(C5CC5)C6)nc4-c4cccc(NS(=O)(=O)c5c(F)cccc5C(F)(F)F)c4F)n3)C2)C1` [Example 82, N-(3-(2-(3-cyclopropyl-3,8-diazabicyclo[3.2.1]octan-8-yl)-5-(2-((2,2-dioxido-2-thiaspiro[3.3]heptan-6-yl)amino)pyrimidin-4-yl)thiazol-4-yl)-2-fluorophenyl)-2-fluoro-6-(trifluoromethyl)benzenesulfonamide]: the IC50 stood at 0.13 µM.

Regarding `CC1(C#N)CC(N2CC3CCC(C2)N3c2nc(-c3cccc(NS(=O)(=O)c4c(F)cccc4F)c3F)c(-c3ccnc(NC4CC5(C4)CS(=O)(=O)C5)n3)s2)C1` (centres unmarked) [Example 49, N-(3-(2-(3-(3-cyano-3-methylcyclobutyl)-3,8-diazabicyclo-[3.2.1]octan-8-yl)-5-(2-((2,2-dioxido-2-thiaspiro[3.3]heptan-6-yl)amino)pyrimidin-4-yl)thiazol-4-yl)-2-fluorophenyl)-2,6-difluorobenzenesulfonamide], the IC50 is 1.13 µM.

As to `O=S1(=O)C[C@@H]2[C@H](C1)[C@H]2Nc1nccc(-c2sc(C3(C(F)F)CC3)nc2-c2cccc(NS(=O)(=O)c3c(F)cccc3C(F)(F)F)c2F)n1` [Example 128, N-(3-(2-(1-(difluoromethyl)cyclopropyl)-5-(2-(((1R,5S,6r)-3,3-dioxido-3-thiabicyclo[3.1.0]hexan-6-yl)amino)pyrimidin-4-yl)thiazol-4-yl)-2-fluorophenyl)-2-fluoro-6-(trifluoromethyl)-benzenesulfonamide], the IC50 came to 0.05 µM.

`O=S1(=O)CC2(CC(Nc3nccc(-c4sc(N5C6CCC5CN(CC(F)(F)F)C6)nc4-c4cccc(NS(=O)(=O)c5c(F)cccc5F)c4F)n3)C2)C1` [Example 139, N-(3-(5-(2-((2,2-dioxido-2-thiaspiro[3.3]heptan-6-yl)amino)-pyrimidin-4-yl)-2-(3-(2,2,2-trifluoroethyl)-3,8-diazabicyclo-[3.2.1]octan-8-yl)thiazol-4-yl)-2-fluorophenyl)-2,6-difluoro-benzenesulfonamide]: the IC50 came out at 0.13 µM.

Take `O=S1(=O)CC2(CC(Nc3nccc(-c4sc(C56CC(C(F)(F)F)(C5)C6)nc4-c4cccc(NS(=O)(=O)c5c(F)cccc5F)c4F)n3)C2)C1` [Example 39, N-(3-(5-(2-((2,2-dioxido-2-thiaspiro[3.3]heptan-6-yl)amino)-pyrimidin-4-yl)-2-(3-(trifluoromethyl)bicyclo[1.1.1]pentan-1-yl)thiazol-4-yl)-2-fluorophenyl)-2,6-difluorobenzenesulfonamide]: the IC50 was 0.35 µM.

For `CN1CC2CCC(C1)N2c1nc(-c2cccc(NS(=O)(=O)c3c(F)cccc3OC(F)F)c2F)c(-c2ccnc(NC3CC4(C3)CS(=O)(=O)C4)n2)s1` [Example 66, 2-(difluoromethoxy)-N-(3-(5-(2-((2,2-dioxido-2-thiaspiro[3.3]-heptan-6-yl)amino)pyrimidin-4-yl)-2-(3-methyl-3,8-diazabicyclo[3.2.1]octan-8-yl)thiazol-4-yl)-2-fluorophenyl)-6-fluorobenzenesulfonamide], the IC50 stood at 0.15 µM.

Regarding `C[C@H]1COC[C@H](C)N1c1nc(-c2cccc(NS(=O)(=O)c3c(F)cccc3C(F)(F)F)c2F)c(-c2ccnc(N[C@H]3[C@@H]4CS(=O)(=O)C[C@@H]43)n2)s1` [Example 114, N-(3-(2-((3S,5S)-3,5-dimethylmorpholino)-5-(2-(((1R,5S,6r)-3,3-dioxido-3-thiabicyclo[3.1.0]hexan-6-yl)amino)pyrimidin-4-yl)thiazol-4-yl)-2-fluorophenyl)-2-fluoro-6-(trifluoromethyl)benzenesulfonamide], the IC50 is 0.3 µM.

For the compound `CS(=O)(=O)C1CCC(Nc2nccc(-c3sc(C45CC(C(F)(F)F)(C4)C5)nc3-c3cccc(NS(=O)(=O)c4c(Cl)cccc4C(F)(F)F)c3F)n2)CC1` (centres unmarked) [Example 118, 2-chloro-N-(2-fluoro-3-(5-(2-(((1s,4s)-4-(methylsulfonyl)-cyclohexyl)amino)pyrimidin-4-yl)-2-(3-(trifluoromethyl)bicyclo-[1.1.1]pentan-1-yl)thiazol-4-yl)phenyl)-6-(trifluoromethyl)-benzenesulfonamide], the IC50 was 0.73 µM.

`CC1CC(C)N1c1nc(-c2cccc(NS(=O)(=O)c3c(F)cccc3F)c2F)c(-c2ccnc(NC3CC4(C3)CS(=O)(=O)C4)n2)s1` (centres unmarked) [Example 71, N-(3-(2-(2,4-dimethylazetidin-1-yl)-5-(2-((2,2-dioxido-2-thiaspiro[3.3]heptan-6-yl)amino)pyrimidin-4-yl)thiazol-4-yl)-2-fluorophenyl)-2,6-difluorobenzenesulfonamide]: the IC50 was 18.9 µM.

On to `O=S1(=O)C[C@@H]2[C@H](C1)[C@@H]2Nc1nccc(-c2sc(C34CCC(CC3)CC4)nc2-c2cccc(NS(=O)(=O)c3c(F)cccc3F)c2F)n1` [Example 119, N-(3-(2-(bicyclo[2.2.2]octan-1-yl)-5-(2-(((1R,5S,6s)-3,3-dioxido-3-thiabicyclo[3.1.0]hexan-6-yl)amino)pyrimidin-4-yl)thiazol-4-yl)-2-fluorophenyl)-2,6-difluorobenzenesulfonamide], for which the IC50 was determined as 1.34 µM.

Take `CN1CC2CCC(C1)N2c1nc(-c2cccc(NS(=O)(=O)c3c(F)cccc3C(F)(F)F)c2F)c(-c2ccnc(NC3[C@H]4CS(=O)(=O)C[C@@H]34)n2)s1` (stereo partly drawn) [Example 111, N-(3-(5-(2-(((1R,5S,6s)-3,3-dioxido-3-thiabicyclo[3.1.0]hexan-6-yl)amino)pyrimidin-4-yl)-2-(3-methyl-3,8-diazabicyclo[3.2.1]octan-8-yl)thiazol-4-yl)-2-fluorophenyl)-2-fluoro-6-(trifluoromethyl)benzenesulfonamide]: the IC50 is 0.08 µM.

With `O=S1(=O)CC2(CC(Nc3nccc(-c4sc(C56CC(C5)C6)nc4-c4cccc(NS(=O)(=O)c5c(F)cccc5C(F)F)c4F)n3)C2)C1` [Example 47, N-(3-(2-(bicyclo[1.1.1]pentan-1-yl)-5-(2-((2,2-dioxido-2-thiaspiro[3.3]heptan-6-yl)amino)pyrimidin-4-yl)thiazol-4-yl)-2-fluorophenyl)-2-(difluoromethyl)-6-fluorobenzenesulfonamide], the IC50 came to 0.05 µM.

For `O=S1(=O)CC2(CC(Nc3nccc(-c4sc(N5C6CCCC5CC6)nc4-c4cccc(NS(=O)(=O)c5c(F)cccc5F)c4F)n3)C2)C1` [Example 19, N-(3-(2-(8-azabicyclo[3.2.1]octan-8-yl)-5-(2-((2,2-dioxido-2-thiaspiro[3.3]heptan-6-yl)amino)pyrimidin-4-yl)thiazol-4-yl)-2-fluorophenyl)-2,6-difluorobenzenesulfonamide], the IC50 is 0.19 µM.
